Read-outs that look alike come from different tables or passages of the source.
Assays:
[1] = target: T1, serotonin 4 receptor (Cavia porcellus, UniProt O70528); assay: Stimulating action test on serotonin 4 receptor: twitch responses in electrically stimulated longitudinal muscle strips of guinea pig ileum; assay type: cell-based, guinea pig (Hartley)
T1 construct: from tissue; host or cells: ileum longitudinal muscle strips of Hartley guinea pigs
From the text: Stimulating Action Test on Serotonin 4 Receptor Test Drugs
Test Drug 1: Compound 1 of the present invention
Test Drug 2: The compound described in Japanese Patent Kokai No. 3-197462 represented by the following formula: [drawing 5]
Test Drug 3: The compound described in Japanese Patent Kokai No. 4-226980 represented by the following formula: [drawing 6]
Twitch responses were examined in longitudinal muscle strips of guinea pig according to a modification of the method described in The Journal of Pharmacology and Experimental Therapeutics, vol. 252, page 1378, 1990.
From Hartley guinea pigs, a section of ileum 25 cm in length and proximal to the ileocecal junction was removed. The longitudinal muscle strips obtained from two segments of ileum about 4 cm each in length were used for this test. The longitudinal muscle strips were suspended in Kreb's solution at 32° to 34° C. and bubbled with 95% O2 and 5% CO2 under a load of about 0.8 g. The responses were recorded under an electrical stimulation of 0.2 Hz, 1 msec pulse duration, using force displacement transducers. The longitudinal muscle strips were allowed to stand at supramaximal voltage for about an hour, and thereby were stable. After it was confirmed that the twitch responses were enhanced by 10^-8 M 5-HT, each test drug was examined on its activity for twitch responses. The test was carried out by exposing the strips to cumulative additions of the test drug at least at 45 minute intervals.

[2] = system: serotonin 4 receptors; details: stimulants of serotonin 4 receptors; Alimentary Pharmacology and Therapeutics, vol. 6, page 273, 1992; cited from earlier work
[3] = system: gastric emptying; assay: Action on gastric emptying in rats (clonidine-treated, residual rate of glass balls in stomach); assay type: in vivo, Male wistar rats; details: rat; for Residual rate in Stomach: relative to clonidine hydrochloride-treated animal
Method: Action on Gastric Emptying in Rats
The test was carried out by a modification of the method described in British Journal of Pharmacology, vol. 91, page 263, 1987.
Male wistar rats weighing 170 to 220 g were used after fasting for 24 hours.
Clonidine hydrochloride of 30 μg/kg was administered subcutaneously, and after 30 minutes the compound of the present invention was administered subcutaneously. After 30 minutes 1 ml of glass balls (500 mg/ml) was administered orally. After 30 minutes the glass balls remained in the stomach were recovered and weighed to determine the rate [residual rate in stomach (%)] to the residual amount in the stomach of the clonidine hydrochloride-treated animal.
(§1) The compound of the present invention was administered after dissolving in saline aqueous solution.

[4] = Toxicity examination of mouse single administration (acute toxicity); details: in vivo, single oral administration, read-out: LD value
Method: With respect to toxicity of Compound (1) represented by Formula (I) which is an effective ingredient of the pharmaceutical composition of the present invention, as a result of the toxicity examination of mouse single administration (acute toxicity), the LD value is more than 500 mg/kg by oral administration.

[5] = system: gastrointestinal motor; assay: Action on gastrointestinal motor in dogs (strain gauge force transducers, motility index); assay type: in vivo, Beagle dogs; details: for Motility Index: dog, gastric motor after feeding
Method: Action on Gastrointestinal Motor in Dogs
The test was carried out by a modification of the method described in Gastroenterologia Japonica, vol. 12, page 275, 1977.
Beagle dogs of both sexes weighing 9 to 15 kg were anesthetized with sodium pentobarbital and strain gauge force transducers were sutured on 5 portions, i.e. for determining antral, duodenum, jejunal, ileal and colonel motor responses. A cannula for administering a drug was mounted persistently into the jugular vein. After recovery of the surgery, motor responses of the dog under no-anesthesia without restriction at those portions on the gastrointestinal tract in both during a fasting period and after feeding were determined in the conscious […].
as §1
The motor index is shown in terms of a proportion (%) of a mean value calculated for 15 minutes to a value prior to administration (0 minute). The value for 0 minute was made a mean value for 30 minutes prior to the administration.
Tables 2 and 3 show the activity of the compound of the present invention in doses of 0.3 mg/kg for intravenous route and 1 mg/kg for oral route, respectively, on the gastric motor action after feeding.

[6] = guinea pig ileum longitudinal muscle strips, electrical stimulation 0.2 Hz, 1 msec, cumulative additions at least at 45 minute intervals, read-out: ED50 (the source's name)

T1 sequence (O70528 whole entry): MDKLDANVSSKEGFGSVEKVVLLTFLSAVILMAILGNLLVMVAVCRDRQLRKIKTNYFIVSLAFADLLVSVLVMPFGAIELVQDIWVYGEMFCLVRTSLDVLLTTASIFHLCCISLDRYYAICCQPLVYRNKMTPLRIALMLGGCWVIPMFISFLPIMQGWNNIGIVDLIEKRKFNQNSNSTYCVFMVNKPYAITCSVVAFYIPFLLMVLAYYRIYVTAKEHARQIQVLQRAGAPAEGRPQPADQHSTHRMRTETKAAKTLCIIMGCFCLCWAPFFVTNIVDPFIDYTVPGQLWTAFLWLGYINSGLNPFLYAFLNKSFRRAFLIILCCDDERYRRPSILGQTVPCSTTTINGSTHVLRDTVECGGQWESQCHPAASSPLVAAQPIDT

## NCCc1c[nH]c2ccc(O)cc12 [Compound 5-HT]
[1]; 10^-8 M 5-HT, confirmation before test drug
  twitch responses: enhanced

## CN1[C@@H]2CC[C@H]1C[C@@H](OC(=O)c1cc3ccccc3[nH]c1=O)C2 [Test Drug 2]
[1]; [6]
  EC50: > 3 µM

## CCCCn1c(=O)c(C(=O)N[C@H]2C[C@H]3CC[C@@H](C2)N3C)c(O)c2ccccc21 [Test Drug 3]
[1]; [6]
  EC50: > 3 µM

## COc1cc(N)c(Cl)cc1C(=O)NC1CCN(CCCOc2ccc(F)cc2)CC1OC (centres unmarked) [Cisapride]
[2]
  gastrointestinal motor functions: accelerate gastrointestinal motor functions

## COc1cc(N)c(Cl)cc1C(=O)NC1CCN2CCCC1C2 (centres unmarked) [renzapride]
[2]
  gastrointestinal motor functions: accelerate gastrointestinal motor functions

## CC(C)n1c(=O)c(C(=O)O[C@H]2C[C@H]3CC[C@@H](C2)N3C)cc2ccccc21 [Compound (1), endo-(8-methyl-8-azabicyclo[3.2.1]oct-3-yl) 1-isopropyl-2(1H)-quinolone-3-carboxylate]
[3]; subcutaneous 0.03 mg/kg, 5 cases
  Residual rate in Stomach: 59.2%
[3]; subcutaneous 0.1 mg/kg, 5 cases
  Residual rate in Stomach: 50.4%
[3]; subcutaneous 0.3 mg/kg, 6 cases
  Residual rate in Stomach: 38.7%
[3]; subcutaneous 1.0 mg/kg, 6 cases
  Residual rate in Stomach: 40.0%
[3]; subcutaneous administration
  action on gastric emptying: inhibited dose-dependent accelerating action on gastric emptying
[1]
  EC50: 0.0213 µM
[4]
  LD50: > 500 mg/kg
[5]; intravenous 0.3 mg/kg, 0 min (value prior to administration, = 100), N = 3
  Motility Index: 100%
[5]; intravenous 0.3 mg/kg, 15 min, N = 3, p < 0.05
  Motility Index: 247.8%
[5]; intravenous 0.3 mg/kg, 30 min, N = 3, p < 0.01
  Motility Index: 219.8%
[5]; intravenous 0.3 mg/kg, 45 min, N = 3, p < 0.01
  Motility Index: 178.8%
[5]; intravenous 0.3 mg/kg, 60 min, N = 3, p < 0.01
  Motility Index: 162.3%
[5]; intravenous 0.3 mg/kg, 75 min, N = 3, p < 0.001
  Motility Index: 181.0%
[5]; intravenous 0.3 mg/kg, 90 min, N = 3
  Motility Index: 166.7%
[5]; intravenous 0.3 mg/kg, 105 min, N = 3
  Motility Index: 150.1%
[5]; intravenous 0.3 mg/kg, 120 min, N = 3
  Motility Index: 123.5%
[5]; oral 1 mg/kg, 0 min (value prior to administration, = 100), N = 3
  Motility Index: 100%
[5]; oral 1 mg/kg, 15 min, N = 3
  Motility Index: 179.5%
[5]; oral 1 mg/kg, 30 min, N = 3
  Motility Index: 238.6%
[5]; oral 1 mg/kg, 45 min, N = 3
  Motility Index: 295.0%
[5]; oral 1 mg/kg, 60 min, N = 3
  Motility Index: 238.8%
[5]; oral 1 mg/kg, 75 min, N = 3
  Motility Index: 252.3%
[5]; oral 1 mg/kg, 90 min, N = 3
  Motility Index: 193.9%
[5]; oral 1 mg/kg, 105 min, N = 3
  Motility Index: 251.7%
[5]; oral 1 mg/kg, 120 min, N = 3
  Motility Index: 257.8%
[5]; oral 1 mg/kg, 135 min, N = 3, p < 0.05
  Motility Index: 220.6%
[5]; oral 1 mg/kg, 150 min, N = 3
  Motility Index: 158.1%
[5]; oral 1 mg/kg, 165 min, N = 3
  Motility Index: 201.9%
[5]; oral 1 mg/kg, 180 min, N = 3, p < 0.05
  Motility Index: 188.9%
[5]; intravenous and oral administrations, both during the fasting period and after feeding, vehicle alone no influence
  motor action on the gastrointestinal tract: showed acceleration on the motor action on the gastrointestinal tract
